# Laboratory results from the NIST ThermoML archive (doi:10.1021/je400408w).
# ± gives the expanded uncertainty stated by the source.
# Experiment: molar heat capacity at constant pressure; xn = mol fraction of the nth substance listed
# Settings: 100 kPa, Liquid
structure (smiles),measurement,setting,value
Cc1ccc(Cl)cc1 [4-chlorotoluene] + CN1CCCC1=O,molar heat capacity at constant pressure,"293.15 K, x2 = 0",175.66 ± 1.6 J/K/mol
same,molar heat capacity at constant pressure,"293.15 K, x2 = 0.0671",176.7 ± 1.6 J/K/mol
same,molar heat capacity at constant pressure,"293.15 K, x2 = 0.1128",177.44 ± 1.6 J/K/mol
same,molar heat capacity at constant pressure,"293.15 K, x2 = 0.1487",178.03 ± 1.6 J/K/mol
same,molar heat capacity at constant pressure,"293.15 K, x2 = 0.1876",178.67 ± 1.7 J/K/mol
same,molar heat capacity at constant pressure,"293.15 K, x2 = 0.2219",179.21 ± 1.7 J/K/mol
same,molar heat capacity at constant pressure,"293.15 K, x2 = 0.2615",179.85 ± 1.7 J/K/mol
same,molar heat capacity at constant pressure,"293.15 K, x2 = 0.2987",180.33 ± 1.7 J/K/mol
same,molar heat capacity at constant pressure,"293.15 K, x2 = 0.3328",180.77 ± 1.7 J/K/mol
same,molar heat capacity at constant pressure,"293.15 K, x2 = 0.3728",181.29 ± 1.7 J/K/mol
same,molar heat capacity at constant pressure,"293.15 K, x2 = 0.4137",181.62 ± 1.7 J/K/mol
same,molar heat capacity at constant pressure,"293.15 K, x2 = 0.4512",181.89 ± 1.7 J/K/mol
same,molar heat capacity at constant pressure,"293.15 K, x2 = 0.4928",182.07 ± 1.7 J/K/mol
same,molar heat capacity at constant pressure,"293.15 K, x2 = 0.5316",182.09 ± 1.7 J/K/mol
same,molar heat capacity at constant pressure,"293.15 K, x2 = 0.5773",181.94 ± 1.7 J/K/mol
same,molar heat capacity at constant pressure,"293.15 K, x2 = 0.6154",181.61 ± 1.7 J/K/mol
same,molar heat capacity at constant pressure,"293.15 K, x2 = 0.6542",181.16 ± 1.7 J/K/mol
same,molar heat capacity at constant pressure,"293.15 K, x2 = 0.6927",180.46 ± 1.7 J/K/mol
same,molar heat capacity at constant pressure,"293.15 K, x2 = 0.7326",179.54 ± 1.7 J/K/mol
same,molar heat capacity at constant pressure,"293.15 K, x2 = 0.7732",178.32 ± 1.6 J/K/mol
same,molar heat capacity at constant pressure,"293.15 K, x2 = 0.8142",176.8 ± 1.6 J/K/mol
same,molar heat capacity at constant pressure,"293.15 K, x2 = 0.8315",176 ± 1.6 J/K/mol
same,molar heat capacity at constant pressure,"293.15 K, x2 = 0.8715",174.08 ± 1.6 J/K/mol
same,molar heat capacity at constant pressure,"293.15 K, x2 = 0.9153",171.57 ± 1.6 J/K/mol
same,molar heat capacity at constant pressure,"293.15 K, x2 = 0.9534",169.04 ± 1.6 J/K/mol
same,molar heat capacity at constant pressure,"298.15 K, x2 = 0",177.95 ± 1.6 J/K/mol
same,molar heat capacity at constant pressure,"298.15 K, x2 = 0.0671",178.71 ± 1.7 J/K/mol
same,molar heat capacity at constant pressure,"298.15 K, x2 = 0.1128",179.35 ± 1.7 J/K/mol
same,molar heat capacity at constant pressure,"298.15 K, x2 = 0.1487",179.8 ± 1.7 J/K/mol
same,molar heat capacity at constant pressure,"298.15 K, x2 = 0.1876",180.38 ± 1.7 J/K/mol
same,molar heat capacity at constant pressure,"298.15 K, x2 = 0.2219",180.88 ± 1.7 J/K/mol
same,molar heat capacity at constant pressure,"298.15 K, x2 = 0.2615",181.44 ± 1.7 J/K/mol
same,molar heat capacity at constant pressure,"298.15 K, x2 = 0.2987",181.87 ± 1.7 J/K/mol
same,molar heat capacity at constant pressure,"298.15 K, x2 = 0.3328",182.28 ± 1.7 J/K/mol
same,molar heat capacity at constant pressure,"298.15 K, x2 = 0.3728",182.72 ± 1.7 J/K/mol
same,molar heat capacity at constant pressure,"298.15 K, x2 = 0.4137",183.02 ± 1.7 J/K/mol
same,molar heat capacity at constant pressure,"298.15 K, x2 = 0.4512",183.22 ± 1.7 J/K/mol
same,molar heat capacity at constant pressure,"298.15 K, x2 = 0.4928",183.31 ± 1.7 J/K/mol
same,molar heat capacity at constant pressure,"298.15 K, x2 = 0.5316",183.2 ± 1.7 J/K/mol
same,molar heat capacity at constant pressure,"298.15 K, x2 = 0.5773",182.93 ± 1.7 J/K/mol
same,molar heat capacity at constant pressure,"298.15 K, x2 = 0.6154",182.53 ± 1.7 J/K/mol
same,molar heat capacity at constant pressure,"298.15 K, x2 = 0.6542",182.01 ± 1.7 J/K/mol
same,molar heat capacity at constant pressure,"298.15 K, x2 = 0.6927",181.23 ± 1.7 J/K/mol
same,molar heat capacity at constant pressure,"298.15 K, x2 = 0.7326",180.21 ± 1.7 J/K/mol
same,molar heat capacity at constant pressure,"298.15 K, x2 = 0.7732",178.9 ± 1.7 J/K/mol
same,molar heat capacity at constant pressure,"298.15 K, x2 = 0.8142",177.33 ± 1.6 J/K/mol
same,molar heat capacity at constant pressure,"298.15 K, x2 = 0.8315",176.54 ± 1.6 J/K/mol
same,molar heat capacity at constant pressure,"298.15 K, x2 = 0.8715",174.58 ± 1.6 J/K/mol
same,molar heat capacity at constant pressure,"298.15 K, x2 = 0.9153",172.16 ± 1.6 J/K/mol
same,molar heat capacity at constant pressure,"298.15 K, x2 = 0.9534",169.62 ± 1.6 J/K/mol
same,molar heat capacity at constant pressure,"303.15 K, x2 = 0",180.37 ± 1.7 J/K/mol
same,molar heat capacity at constant pressure,"303.15 K, x2 = 0.0671",180.9 ± 1.7 J/K/mol
same,molar heat capacity at constant pressure,"303.15 K, x2 = 0.1128",181.36 ± 1.7 J/K/mol
same,molar heat capacity at constant pressure,"303.15 K, x2 = 0.1487",181.81 ± 1.7 J/K/mol
same,molar heat capacity at constant pressure,"303.15 K, x2 = 0.1876",182.29 ± 1.7 J/K/mol
same,molar heat capacity at constant pressure,"303.15 K, x2 = 0.2219",182.72 ± 1.7 J/K/mol
same,molar heat capacity at constant pressure,"303.15 K, x2 = 0.2615",183.16 ± 1.7 J/K/mol
same,molar heat capacity at constant pressure,"303.15 K, x2 = 0.2987",183.61 ± 1.7 J/K/mol
same,molar heat capacity at constant pressure,"303.15 K, x2 = 0.3328",183.94 ± 1.7 J/K/mol
same,molar heat capacity at constant pressure,"303.15 K, x2 = 0.3728",184.22 ± 1.7 J/K/mol
same,molar heat capacity at constant pressure,"303.15 K, x2 = 0.4137",184.44 ± 1.7 J/K/mol
same,molar heat capacity at constant pressure,"303.15 K, x2 = 0.4512",184.54 ± 1.7 J/K/mol
same,molar heat capacity at constant pressure,"303.15 K, x2 = 0.4928",184.53 ± 1.7 J/K/mol
same,molar heat capacity at constant pressure,"303.15 K, x2 = 0.5316",184.46 ± 1.7 J/K/mol
same,molar heat capacity at constant pressure,"303.15 K, x2 = 0.5773",184.08 ± 1.7 J/K/mol
same,molar heat capacity at constant pressure,"303.15 K, x2 = 0.6154",183.54 ± 1.7 J/K/mol
same,molar heat capacity at constant pressure,"303.15 K, x2 = 0.6542",182.89 ± 1.7 J/K/mol
same,molar heat capacity at constant pressure,"303.15 K, x2 = 0.6927",182.04 ± 1.7 J/K/mol
same,molar heat capacity at constant pressure,"303.15 K, x2 = 0.7326",180.88 ± 1.7 J/K/mol
same,molar heat capacity at constant pressure,"303.15 K, x2 = 0.7732",179.49 ± 1.7 J/K/mol
same,molar heat capacity at constant pressure,"303.15 K, x2 = 0.8142",177.84 ± 1.6 J/K/mol
same,molar heat capacity at constant pressure,"303.15 K, x2 = 0.8315",177.12 ± 1.6 J/K/mol
same,molar heat capacity at constant pressure,"303.15 K, x2 = 0.8715",175.13 ± 1.6 J/K/mol
same,molar heat capacity at constant pressure,"303.15 K, x2 = 0.9153",172.62 ± 1.6 J/K/mol
same,molar heat capacity at constant pressure,"303.15 K, x2 = 0.9534",170.26 ± 1.6 J/K/mol
